Reference: patent publication US11872210B2, “Thiol isomerases inhibitors and use thereof” (WESTERN NEW ENGLAND UNIVERSITY, priority 2017, dated 2024)

Key:
[1] = biological target: T1, ERp57 (Homo sapiens, UniProt P30101); assay: Insulin-based turbidometric assay of thiol isomerase inhibitory activity (ERp57); format: biochemical; settings: specificity assay, insulin turbidity
T1 construct: purchased AbCam (Cambridge Mass.)
T1 sequence (P30101 25-505): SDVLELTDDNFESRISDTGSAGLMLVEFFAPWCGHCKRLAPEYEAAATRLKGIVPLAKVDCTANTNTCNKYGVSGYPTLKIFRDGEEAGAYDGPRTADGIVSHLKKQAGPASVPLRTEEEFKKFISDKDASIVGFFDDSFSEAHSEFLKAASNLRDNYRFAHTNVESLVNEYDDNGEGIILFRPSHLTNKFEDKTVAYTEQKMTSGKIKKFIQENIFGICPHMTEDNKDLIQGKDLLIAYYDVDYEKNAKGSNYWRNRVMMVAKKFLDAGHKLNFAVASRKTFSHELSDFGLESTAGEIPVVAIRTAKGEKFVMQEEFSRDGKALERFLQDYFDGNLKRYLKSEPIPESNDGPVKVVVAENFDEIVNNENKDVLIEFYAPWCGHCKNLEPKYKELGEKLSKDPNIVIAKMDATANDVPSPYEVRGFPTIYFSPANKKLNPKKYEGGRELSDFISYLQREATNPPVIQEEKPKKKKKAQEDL

[2] = test system: human washed platelets; assay: Collagen stimulated platelet aggregation; format: cell-based; settings: collagen 1 μg/mL, 3 minutes
Experimental: Human Platelet Preparation: 50 mL of blood was drawn from drug free, consenting individuals, into a syringe containing 5 mL sodium citrate (4% w/v) and 7.5 mL warmed ACD (85 mM sodium citrate, 71 mM citric acid and 110 mM glucose). Blood was centrifuged at 102 g for 20 minutes to obtain platelet-rich plasma (PRP), which was then decanted and 104 prostacyclin (PGI2 125 μg/mL, solubilized in ethanol) added. Platelets were pelleted by centrifugation at 1413 g for 10 minutes, platelet poor plasma was discarded and the pellet resuspended in 25 mL Tyrode's-HEPES buffer (134 mM NaCl, 2.9 mM KCl, 0.34 mM Na2HPO4, 12 mM NaHCO3, 20 mM HEPES, 1 mM MgCl2 and 5 mM glucose pH 7.3), 3 mL of ACD and 10 μL PGI2 were added and then following centrifugation at 1413 g for 10 minutes, the platelet pellet was re-suspended to the appropriate cell density using Tyrode's buffer. Platelets were rested for 30 minutes at 30° C. to allow platelet responses to recover.
Platelet Aggregation: 445 μL of washed platelets at (4×10^8 cells/mL) were incubated for 5 minutes with vehicle (0.1% (v/v) DMSO) or 54 zafirlukast or montelukast. 50 μL of collagen 1 μg/mL (final), was added and light transmission monitored for 3 minutes at 37° C. with constant stirring (1200 rpm) using an aggregometer (Chronolog, USA).
Statistical analyses: All raw data was analyzed by 1-way ANOVA and where appropriate normalized to vehicle. GraphPad Prism was used to perform statistical analysis by ANOVA or students T test. The level of significance of p values is as follows, *p<0.05,**p<0.01, ***p<0.005. Data presented are mean+/−standard error of the mean.
Zafirlukast inhibits platelet aggregation: Human washed platelets (4×10^8 cells/mL) were pre-treated with 0.1 μM-10 μM zafirlukast or vehicle. Platelets were stimulated with collagen 1 μg/mL and allowed to aggregate for 3 minutes. Aggregation traces representative of the response were obtained and dose responses compared.

SMILES | specificity among thiol isomerases [1] | platelet aggregation, normalized to vehicle ([2]; 10 μM) [%] | inhibition at 2.5 µM ([2]; Homo sapiens, Platelet, 0.05 h, 2.5 μM) [%] | inhibition at 3.75 µM ([2]; Homo sapiens, Platelet, 0.05 h, 3.75 μM) [%] | inhibition at 5 µM ([2]; Homo sapiens, Platelet, 0.05 h, 5 μM) [%] | inhibition at 10 µM ([2]; Homo sapiens, Platelet, 0.05 h, 10 μM) [%]
CC(C)(C=O)Cc1cc(C(C)(C)C)c(O)c(C(C)(C)C)c1 [CGP-13501] | specific for ERp57 | – | – | – | – | –
CC(C)(O)c1ccccc1CC[C@@H](SCC1(CC(=O)O)CC1)c1cccc(/C=C/c2ccc3ccc(Cl)cc3n2)c1 [montelukast, [R-(E)]-1-[[[1-[3-[2-(7-chloro-2-quinolinyl)ethenyl]phenyl]-3-[2-(7-chloro-2-quinolinyl)ethenyl]phenyl]-3-[2-(1-hydroxy-1-methylethyl)phenyl]propyl]thio]methyl cyclopropane acetic acid] | – | 3.99±0.800 | 62.1 | 83.6 | 90.6 | 96.1
